Test results taken from ChEMBL document CHEMBL1129712, “Synthesis and biological activities of camphor-based non-peptide growth hormone secretagogues” (Bioorg Med Chem Lett, 1996).

Organism: Rattus norvegicus
Assay: Evaluated for intrinsic GH secretory potency as half maximal release of GH in the rat pituitary cell assay.
Type: functional
Conditions: Pituitary gland cell

Point of comparison: `CC1(C)C2CCC1(CS(=O)(=O)N1CCC3(CCc4ccccc43)CC1)C(NC(=O)[C@@H]1CCCN(C[C@H](O)CO)C1)C2` (stereo not given in full), EC50 800 nM. Against it:
- CC(C)(C)OC(=O)N1CCCC(C(=O)NC2CC3CCC2(CS(=O)(=O)N2CCC4(CCc5ccccc54)CC2)C3(C)C)C1 (stereo not given) — higher, > 25000 nM
- CC1(C)C2CCC1(CS(=O)(=O)N1CCC3(CCc4ccccc43)CC1)C(NC(=O)C1CCNCC1)C2 (stereo not given) — 12-fold higher, 9500 nM
- CC1(C)C2CCC1(CS(=O)(=O)N1CCC3(CCc4ccccc43)CC1)C(NC(=O)[C@@H]1CCCNC1)C2 (stereo partly drawn) [L-162425] — 5.7-fold lower, 140 nM
- Cc1ccccc1N1CCN(S(=O)(=O)CC23CCC(CC2NC(=O)CC(C)(C)N)C3(C)C)CC1 (stereo not given) — higher, > 10000 nM
- CC1(C)C2CCC1(CS(=O)(=O)N1CCC3(CCc4ccccc43)CC1)C(NC(=O)C1CCCNC1)C2 [L-368112] — 2.7-fold lower, 300 nM
- Cc1ccccc1N1CCN(S(=O)(=O)CC23CCC(CC2NC(=O)[C@H]2CCCNC2)C3(C)C)CC1 (stereo not given in full) — higher, > 5000 nM
- CC(C)(N)C(=O)NC1CC2CCC1(CS(=O)(=O)N1CCC3(CCc4ccccc43)CC1)C2(C)C (stereo not given) — higher, > 10000 nM
- C[C@@H](O)CN1CCC[C@@H](C(=O)NC2CC3CCC2(CS(=O)(=O)N2CCC4(CCc5ccccc54)CC2)C3(C)C)C1 (stereo not given in full) — 8.9-fold lower, 90 nM
- CC(C)(N)CC(=O)NC1CC2CCC1(CS(=O)(=O)N1CCC3(CCc4ccccc43)CC1)C2(C)C (stereo not given) — higher, > 10000 nM
- Cc1ccccc1N1CCN(S(=O)(=O)CC23CCC(CC2NC(=O)[C@@H]2CCCNC2)C3(C)C)CC1 (stereo not given in full) — 5.9-fold lower, 135 nM
- CC1(C)C2CCC1(CS(=O)(=O)N1CCC3(CCc4ccccc43)CC1)C(NC(=O)C1CN3CCC1CC3)C2 (stereo not given) — higher, > 10000 nM
- CC1(C)C2CCC1(CS(=O)(=O)N1CCC3(CCc4ccccc43)CC1)C(NC(=O)[C@H]1CCCNC1)C2 (stereo not given in full) — higher, > 1000 nM
- CC1(C)C2CCC1(CS(=O)(=O)N1CCC3(CCc4ccccc43)CC1)C(NC(=O)C1CCCCN1)C2 (stereo not given) — higher, > 10000 nM
- CC1(C)C2CCC1(CS(=O)(=O)N1CCC3(CCc4ccccc43)CC1)C(NC(=O)C1CCCN(CCO)C1)C2 (stereo not given) — 2.7-fold lower, 300 nM
